# Test results taken from US10526322B2, “Inhibitors of kidney-type glutaminase, GLS-1” (CORNELL UNIVERSITY, priority 2014, dated 2020).
# Assays:
# [1] = molecular target: T1, 488-GAC and QSY9-GAC (Mus musculus, UniProt D3Z7P3); assay: FRET assay for GAC tetramer formation; format: binding; settings: 25 nM 488-GAC and 25 nM QSY9-GAC
# T1 construct: (residues 72-603) was cloned into a pET23a vector; His-tag with thrombin cleavage site (N, cleaved yes); made in house
# T1 sequence (D3Z7P3 72-603 isoform D3Z7P3-2): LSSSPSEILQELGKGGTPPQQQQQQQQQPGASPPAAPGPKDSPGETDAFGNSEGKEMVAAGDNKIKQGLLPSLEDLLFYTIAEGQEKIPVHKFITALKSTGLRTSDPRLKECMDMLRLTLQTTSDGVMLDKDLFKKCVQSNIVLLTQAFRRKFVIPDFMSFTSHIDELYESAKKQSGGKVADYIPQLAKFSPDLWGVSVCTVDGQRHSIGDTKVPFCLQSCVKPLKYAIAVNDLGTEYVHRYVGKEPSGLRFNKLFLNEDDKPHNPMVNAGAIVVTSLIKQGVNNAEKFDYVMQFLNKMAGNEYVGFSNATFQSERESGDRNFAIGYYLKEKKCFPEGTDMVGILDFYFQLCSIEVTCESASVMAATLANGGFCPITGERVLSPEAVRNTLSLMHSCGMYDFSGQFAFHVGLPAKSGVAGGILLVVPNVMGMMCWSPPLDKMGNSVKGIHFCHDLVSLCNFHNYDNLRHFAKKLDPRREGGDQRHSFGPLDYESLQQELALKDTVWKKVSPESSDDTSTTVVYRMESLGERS
# Description: Fluorescence experiments were performed using a Varian Cary Eclipse Fluorometer in the counting mode. Excitation and emission wavelengths were 490 and 520 nm, respectively. Experiments were all performed using 1-mL samples with continuous stirring at 20° C. in 50 mM Tris-Acetate, pH 8.5, 0.1 mM ethylenediamine tetraacetic acid (EDTA). For wild-type (WT) GAC titrations in the absence of inorganic phosphate, 25 nM 488-GAC was equilibrated with 25 μL of QSY9-GAC (at varying concentrations) and allowed to equilibrate for 10 minutes, at which point 75 μL of the appropriate concentration of unlabeled WT GAC was added to provide a 10-fold excess over labeled-GAC. To test whether the purified GAC mutants can form oligomers with WT GAC, 200 nM QSY9-GAC (D391K) or 200 nM QSY9-GAC (D391K, K316E, R459E) was added to an equilibrated sample of 20 nM 488-WT GAC. When assaying the effects of BPTES and 968 on oligomer formation, BPTES or 968 was added following equilibration of a sample of 25 nM QSY9-WT GAC and 25 nM 488-WT GAC. Both BPTES and 968 were prepared in DMSO, and appropriate dilutions were made so that less than 2% (v/v) DMSO was added to an experimental sample.
# [2] = system: Dbl-inducible MEFs; assay: Foci forming assay; format: cell-based, mouse; settings: MEFs expressing Dbl, 10 μM 968
# Text: Inducible oncogenic Dbl cell lines were created using the TET-OFF system in mouse embryonic fibroblasts (MEFs) following the manufacturer's instructions (Clontech). Briefly, PCR products for onco-Dbl-containing NotI and XbaI restriction endonuclease sites were cloned in the per2.1 vector using the TOPO-TA cloning kit (Invitrogen) and subsequently subcloned into the p-TREHA vector (Clontech). The pTRE-HA-onco-Dbl was then co-transfected with pMET-Puro in a 20:1 ratio into parental MEFs (Clontech), which contained the transcriptional transactivator (tTa), with Lipofectamine (Invitrogen). Cells were placed under puromycin selection at 48 hours post transfection, and colonies were selected after 2-4 weeks for doxycycline-dependent expression of HA-onco-Dbl using HA.11 antibody (Covance). Cells were maintained in DMEM supplemented with 10% (v/v) Tet system-approved FBS (clontech) and 100 μg/mL G418 (Gibco). To suppress Dbl expression, 1 μg/mL doxycycline was added to the medium every 2 days. Cells were induced by re-plating in doxycycline-free medium where residual doxycycline was removed by replacing the medium 3 hours after plating. Immunofluorescence was conducted on cells grown 48-72 hours on glass cover slips and fixed with 3.7% formaldehyde. […] Digital images were collected using a Zeiss fluorescence microscope and AxioVision 3.1 software. […]
# [3] = molecular target: T2, GAC (Mus musculus, UniProt D3Z7P3); assay: Real-time GAC enzyme activity assay coupled to glutamate dehydrogenase (NADH fluorescence); format: biochemical
# T2 construct: (residues 72-603) was cloned into a pET23a vector; His-tag with thrombin cleavage site (N, cleaved yes); made in house
# T2 sequence (D3Z7P3 72-603 isoform D3Z7P3-2): T1 sequence (D3Z7P3 72-603 isoform D3Z7P3-2)
smiles,measurement,setting,value
CN(C)c1ccc(C2Nc3ccc4ccccc4c3C3=C2C(=O)CC(C)(C)C3)cc1Br (stereo not shown) [Compound 968],effect on GAC tetramer formation (488-GAC emission in mixture with QSY9-GAC),[1],does not appear to interfere with GAC tetramer formation
same,Dbl-induced focus formation,[2],blocked
same,potency of inhibition of GAC activity,[3]; GAC concentration decreased from 50 nM to 5 nM,greater potency
same,inhibition of enzyme activity,[3]; GAC preincubated with inorganic phosphate (50 mM Pi) before 968,much less effective
